Several values for one entry are separate records, joined by “and”; a condition that tells them apart may be missing. Equal values may be shown once. Entries after “also recorded” stand apart in the source; their conditions may differ. Read-outs that look alike come from different tables or passages of the source.
Tests used:
AgGluCl = system: AgGluCl; set-up: method as in PMID 7935817, PMID 8702744, PMID 25994631; settings: read-out: EC50 glutamate; cited from earlier work
CrGluCl-B = assay: Two-electrode voltage-clamp of Xenopus oocytes expressing CrGluCl-B; assay type: cell-based, Caligus rogercresseyi; settings: for activation by ivermectin (EC50 Ivermectin column): CrGluCl-B WT alone, 1-3 μM ivermectin
Experimental: (§1) Adult female Xenopus laevis frogs were anaesthetized by immersion in a1g/L solution tricaine (Ethyl 3-aminobenzoate methanesulfonate, Sigma) buffered to pH 7 with NaHCO3. Surgery was performed 30–40 min later, once the frog was completely anaesthetized judging by loss of reflexes. Ovarian lobes were removed through 1 cm abdominal incision and then kept at 16°C in Barth’s modified solution containing (in mM): 88 NaCl, 1 KCl, 0.4 CaCl2, 0.3 Ca (NO3)2, 0.8 MgSO4, 2.4 NaHCO3, 5 Hepes, 2.5 sodium pyruvate, 100 μg/ml gentamicin sulfate, 100 U/ml penicillin, 100 μg/ml streptomycin, 250 μg/ml amphotericin B, 0.22μm filtered and adjusted to pH 7.5 with Tris-Base. Osmolarity was brought to 220 mOsm with saccharose. The oocytes were manually defolliculated on the same day of extraction and the following day 20 ng cRNA in nuclease-free water was injected into stage V-VI oocytes using a FemtoJet microinjector (Eppendorf). Finally, the injected oocytes were stored in 96 well plates containing Barth’s modified solution and kept at 16°C until experiment day.
Current measurements at controlled membrane potentials (voltage-clamp experiments) were performed using two intracellular microelectrodes in defolliculated Xenopus oocytes previously microinjected with 20 ng of cRNA. Voltage-clamp recording was performed at room temperature using a TURBO TEC-10CX amplifier (npi electronic GmbH, Tamm, Germany) and PClamp 10.6 software (Axon Instruments, USA), 1 to 4 days after oocyte injection. The oocytes were recorded in a chamber (Model RC-1Z, Warner Instrumenst, USA) under continuous superfusion. […] Reference was an Ag-AgCl electrode connected to the bath via a 3 M KCl in 3% agar bridge. Currents were recorded continuously during the experiments without interruptions for solution changes. Oocytes were held at -30 mV and a voltage protocol consisting of a voltage drop to -100 mV for 25ms followed by a 360 ms ramp from -100 mV to 60mV applied with a period of 565 ms was continuously given. The signal filtered at 1 kHz was acquired with a Digidata 1440A Analog-to-Digital Converter and analyzed with Axon pClamp 10.6 software. The solution that bathed the oocytes during the electrophysiological recordings had the following composition (mM): 115 NaCl, 2 KCl, 1.8 CaCl2, 1 MgCl2, 10 HEPES pH 7.5 obtained with NaOH. For the low chloride solution, all the NaCl was replaced with the gluconate salt of Na. This decreases chloride concentration from 122.6 to 7.6 mM while increasing that of gluconate from 0 to 115 mM. The stock solutions of the drugs in dimethyl sulfoxide (DMSO) were: 10 mM emamectin, 10 mM ivermectin, 100 mM picrotoxin. These were diluted in bath solution to obtain final concentrations.
The currents were normalized according to the extrapolated maximum current delivered by the Hill adjustment. In this way, the concentration that generates 50% of the maximum effect (EC50) and the Hill coefficient (nH) for each situation were obtained.

[1] = system: CrGluCl-B Q279E-Y361F mutant; assay: Voltage-clamp of oocytes expressing CrGluCl-B Q279E-Y361F double mutant; assay type: cell-based, Caligus rogercresseyi; settings: 1 μM ivermectin, one-sample t-test
Description: (§2) To identify putative GluCl subunits, we queried the NCBI Transcriptome Shotgun Assembly Sequence (TSA) Database for “glutamate-gated chloride channel Caligus”. The obtained sequences were translated and BLASTed (tBLASTn) against the C. rogercresseyi genome (WGS, BioProject ID 280098, NCBI) and against transcripts of L. salmonis database (https://licebase.org/). Primers for each of the putative new subunit found were designed to span the full length of the open reading frame (ORF) for each of them (B-E) (S1 Table, and arrows in Fig 1). Complete cDNAs were generated by RT-PCR from adult C. rogercresseyi samples from which putative full-length peptide sequences of CrGluCl-B, CrGluCl-C, CrGluCl-D and CrGluCl-E were obtained. Each PCR product was cloned in pGEM-T easy vector and sequenced. […]
(§3) Current measurements at controlled membrane potentials (voltage-clamp experiments) were performed using two intracellular microelectrodes in defolliculated Xenopus oocytes previously microinjected with 20 ng of cRNA. […] The oocytes were recorded in a chamber (Model RC-1Z, Warner Instrumenst, USA) under continuous superfusion. […] Currents were recorded continuously during the experiments without interruptions for solution changes. […] The signal filtered at 1 kHz was acquired with a Digidata 1440A Analog-to-Digital Converter and analyzed with Axon pClamp 10.6 software. […]

CrGluCl-B Y361F mutant = assay: Voltage-clamp of oocytes expressing CrGluCl-B Y361F mutant; assay type: cell-based, Caligus rogercresseyi; settings: 1 μM ivermectin, one-sample t-test
Description: as §2, §3

CrGluCl-B Q327T mutant = assay: Voltage-clamp of oocytes expressing CrGluCl-B Q327T mutant; assay type: cell-based, Caligus rogercresseyi; settings: 1 μM ivermectin, ANOVA P<0.05
Description: as §2, §3

[2] = system: coexpressed CrGluCl-D:CrGluCl-C; assay: Voltage-clamp of oocytes coinjected with CrGluCl-D and CrGluCl-C; assay type: cell-based, Caligus rogercresseyi; settings: D:C ratio 1:1
Experimental: as §1, with “The oocytes were manually defolliculated on the same day of extraction and the following day 20 ng cRNA in nuclease-free water was injected into stage V-VI oocytes using a FemtoJet microinjector (Eppendorf). Finally, the injected oocytes were stored in 96 well plates containing Barth’s modified solution and kept at 16°C until experiment day.” left out
as §3

## N[C@@H](CCC(=O)O)C(=O)O [glutamate, L-glutamate]
AgGluCl
  EC50: 30 µM

## ivermectin
CrGluCl-B; 1 mM glutamate after 1 μM ivermectin, CrGluCl-B
  current evoked by glutamate after ivermectin treatment: 1.70 ± 1.69 μA
CrGluCl-B
  activation by ivermectin (EC50 Ivermectin column): without effect
CrGluCl-B; listed as Ivermectin
  activation by ivermectin (EC50 Ivermectin column): no effect; also recorded: Insensitive
CrGluCl-B; CrGluCl-B, 3 mM glutamate
  nH (ivermectin inhibition): -2.2 ± 0.5 and -2.2
CrGluCl-B; CrGluCl-B, as restated in discussion, read-out: IC50 ivermectin inhibition of glutamate-activated current
  IC50: 0.34 µM
CrGluCl-B; CrGluCl-B, continuous 3 mM glutamate, read-out: IC50 ivermectin antagonism of glutamate-elicited current
  IC50: 0.342 ± 0.114 µM
[1]
  effect of ivermectin on current: small but significant effects
CrGluCl-B Y361F mutant
  effect of ivermectin on current: small but significant effects
CrGluCl-B Q327T mutant
  effect of ivermectin on current compared with WT: significantly greater
[2]
  Iver response to activation: Sensitive

Reference: PMC10038264, “A new family of glutamate-gated chloride channels in parasitic sea louse Caligus rogercresseyi: A subunit refractory to activation by ivermectin is dominant in heteromeric assemblies” (PLOS Pathogens, 2023)
